Assay results: the NIST ThermoML archive (doi:10.1016/j.tca.2016.01.006)
± gives the expanded uncertainty stated by the source.

Experiments:
[1] = Molar enthalpy of transition or fusion; conditions: DSC
[2] = DTA

Structure (SMILES): CC1=C(CC(=O)O)c2cc(F)ccc2/C1=C\c1ccc([S+](C)[O-])cc1 (centres undefined)
- Molar enthalpy of transition or fusion ([1]; Crystal 1): 5.45 ± 0.17 kcal/mol
- Molar enthalpy of transition or fusion ([1]; Metastable crystal): 7.24 ± 0.17 kcal/mol
- Normal melting temperature ([2]; Crystal 1): 190.00 ± 2 °C
- Normal melting temperature ([2]; Metastable crystal): 185.00 ± 2 °C
